Assay results taken from article PMC8188729 (Nature, 2020).

Key:
Cytotoxicity assay [1] = assay type: cell-based; conditions: human, primary human hepatocytes
HIV-1IIIb = test: microbe, parasite or virus in culture; assay type: cell-based
Cytotoxicity assay [2] = assay type: cell-based; conditions: human, monocyte-derived macrophages
Cytotoxicity assay [3] = assay type: cell-based; conditions: human, Gal-PC-3 cells
HIV-1BaL = test: p24 endpoint antiviral assay in macrophage cultures; assay type: cell-based; conditions: Human immunodeficiency virus 1, Macrophage, read-out: mean EC50
CA hexamer_M66I = CA hexamer_M66I (Human immunodeficiency virus type 1 group M subtype B, UniProt P12493, A146C/E177C/M198I/M317A/W316A); test: Surface plasmon resonance binding assay; parameters: species or system HIV-1
HIV-1 capsid = test: Study GS-US-200-4072: HIV-1 resistance analyses; conditions: in vivo
[4] = Study GS-US-200-4070: safety and tolerability in healthy participants; assay type: in vivo, human; conditions: for Acne / Any AE / Back pain / Dizziness / Headache / Injection site bruising / Injection site erythema / Injection site induration / Injection site nodule / Injection site pain / Injection site pruritus / Injection site swelling / Nausea / Oropharyngeal pain / Skin mass / Viral upper respiratory tract infection: healthy
[5] = Study GS-US-200-4072: safety in participants living with HIV; assay type: in vivo, human; conditions: for Any AE / Arthralgia / Constipation / Haemorrhoids / Headache / Injection site erythema / Injection site induration / Injection site nodule / Injection site pain / Nasopharyngitis / Nausea / Oropharyngeal pain / Rash / Serious AE: Atrial fibrillation / Syphilis / Upper respiratory tract infection / Vomiting: PLWH
[6] = GS-6207 20 mg or Placebo (n = 8)
[7] = GS-6207 50 mg or Placebo (n = 8)

SMILES: CC(C)(C#Cc1ccc(-c2ccc(Cl)c3c(NS(C)(=O)=O)nn(CC(F)(F)F)c23)c([C@H](Cc2cc(F)cc(F)c2)NC(=O)Cn2nc(C(F)(F)F)c3c2C(F)(F)[C@@H]2C[C@H]32)n1)S(C)(=O)=O [GS-6207]
- CC50 (Cytotoxicity assay [1]): > 50 µM
- EC50 (HIV-1IIIb; Human immunodeficiency virus 1, MT4, read-out: mean EC50): 0.105 nM
- EC95 (HIV-1IIIb; calculated from EC50 and Hill coefficient): 0.23 nM
- CC50 (Cytotoxicity assay [2]): > 50 µM
- CC50 (Cytotoxicity assay [3]): > 44.4 µM
- EC50 (HIV-1BaL): 0.056 nM
- Kd (CA hexamer_M66I): 60 nM
- koff (CA hexamer_M66I; CA hexamer_M66I): 2.6 ± 0.3 x 10^−3 s^−1
- kon (CA hexamer_M66I; CA hexamer_M66I): 6 ± 4 x 10^4 M^−1s^−1
- decrease in phenotypic susceptibility (HIV-1 capsid): 1.6 fold
- Acne ([4]; 30 mg (n = 8)): 0 n (%)
- Any AE ([4]; 30 mg (n = 8)): 4 (50) n (%)
- Back pain ([4]; 30 mg (n = 8)): 0 n (%)
- Dizziness ([4]; 30 mg (n = 8)): 0 n (%)
- Headache ([4]; 30 mg (n = 8)): 2 (25) n (%)
- Injection site bruising ([4]; 30 mg (n = 8)): 0 n (%)
- Injection site erythema ([4]; 30 mg (n = 8)): 1 (13) n (%)
- Injection site induration ([4]; 30 mg (n = 8)): 0 n (%)
- Injection site nodule ([4]; 30 mg (n = 8)): 0 n (%)
- Injection site pain ([4]; 30 mg (n = 8)): 0 n (%)
- Injection site pruritus ([4]; 30 mg (n = 8)): 1 (13) n (%)
- Injection site swelling ([4]; 30 mg (n = 8)): 1 (13) n (%)
- Nausea ([4]; 30 mg (n = 8)): 1 (13) n (%)
- Oropharyngeal pain ([4]; 30 mg (n = 8)): 1 (13) n (%)
- Skin mass ([4]; 30 mg (n = 8)): 0 n (%)
- Viral upper respiratory tract infection ([4]; 30 mg (n = 8)): 0 n (%)
- Acne ([4]; 100 mg (n = 8)): 0 n (%)
- Any AE ([4]; 100 mg (n = 8)): 8 (100) n (%)
- Back pain ([4]; 100 mg (n = 8)): 0 n (%)
- Dizziness ([4]; 100 mg (n = 8)): 0 n (%)
- Headache ([4]; 100 mg (n = 8)): 1 (13) n (%)
- Injection site bruising ([4]; 100 mg (n = 8)): 0 n (%)
- Injection site erythema ([4]; 100 mg (n = 8)): 5 (63) n (%)
- Injection site induration ([4]; 100 mg (n = 8)): 0 n (%)
- Injection site nodule ([4]; 100 mg (n = 8)): 5 (63) n (%)
- Injection site pain ([4]; 100 mg (n = 8)): 3 (38) n (%)
- Injection site pruritus ([4]; 100 mg (n = 8)): 0 n (%)
- Injection site swelling ([4]; 100 mg (n = 8)): 5 (63) n (%)
- Nausea ([4]; 100 mg (n = 8)): 0 n (%)
- Oropharyngeal pain ([4]; 100 mg (n = 8)): 0 n (%)
- Skin mass ([4]; 100 mg (n = 8)): 0 n (%)
- Viral upper respiratory tract infection ([4]; 100 mg (n = 8)): 0 n (%)
- Acne ([4]; 300 mg (n = 8)): 0 n (%)
- Any AE ([4]; 300 mg (n = 8)): 7 (88) n (%)
- Back pain ([4]; 300 mg (n = 8)): 2 (25) n (%)
- Dizziness ([4]; 300 mg (n = 8)): 1 (13) n (%)
- Headache ([4]; 300 mg (n = 8)): 2 (25) n (%)
- Injection site bruising ([4]; 300 mg (n = 8)): 1 (13) n (%)
- Injection site erythema ([4]; 300 mg (n = 8)): 6 (75) n (%)
- Injection site induration ([4]; 300 mg (n = 8)): 6 (75) n (%)
- Injection site nodule ([4]; 300 mg (n = 8)): 3 (38) n (%)
- Injection site pain ([4]; 300 mg (n = 8)): 6 (75) n (%)
- Injection site pruritus ([4]; 300 mg (n = 8)): 1 (13) n (%)
- Injection site swelling ([4]; 300 mg (n = 8)): 1 (13) n (%)
- Nausea ([4]; 300 mg (n = 8)): 1 (13) n (%)
- Oropharyngeal pain ([4]; 300 mg (n = 8)): 0 n (%)
- Skin mass ([4]; 300 mg (n = 8)): 1 (13) n (%)
- Viral upper respiratory tract infection ([4]; 300 mg (n = 8)): 0 n (%)
- Acne ([4]; 450 mg (n = 8)): 2 (25) n (%)
- Any AE ([4]; 450 mg (n = 8)): 6 (75) n (%)
- Back pain ([4]; 450 mg (n = 8)): 0 n (%)
- Dizziness ([4]; 450 mg (n = 8)): 1 (13) n (%)
- Headache ([4]; 450 mg (n = 8)): 0 n (%)
- Injection site bruising ([4]; 450 mg (n = 8)): 0 n (%)
- Injection site erythema ([4]; 450 mg (n = 8)): 3 (38) n (%)
- Injection site induration ([4]; 450 mg (n = 8)): 2 (25) n (%)
- Injection site nodule ([4]; 450 mg (n = 8)): 1 (13) n (%)
- Injection site pain ([4]; 450 mg (n = 8)): 3 (38) n (%)
- Injection site pruritus ([4]; 450 mg (n = 8)): 1 (13) n (%)
- Injection site swelling ([4]; 450 mg (n = 8)): 0 n (%)
- Nausea ([4]; 450 mg (n = 8)): 0 n (%)
- Oropharyngeal pain ([4]; 450 mg (n = 8)): 0 n (%)
- Skin mass ([4]; 450 mg (n = 8)): 1 (13) n (%)
- Viral upper respiratory tract infection ([4]; 450 mg (n = 8)): 2 (25) n (%)
- safety and tolerability ([4]; single SC 30 to 450 mg, healthy participants): generally safe and well tolerated
- Any AE [5, 6]: 5 (63) n (%)
- Arthralgia [5, 6]: 0 n (%)
- Constipation [5, 6]: 0 n (%)
- Haemorrhoids [5, 6]: 0 n (%)
- Headache [5, 6]: 1 (13) n (%)
- Injection site erythema [5, 6]: 1 (13) n (%)
- Injection site induration [5, 6]: 0 n (%)
- Injection site nodule [5, 6]: 0 n (%)
- Injection site pain [5, 6]: 0 n (%)
- Nasopharyngitis [5, 6]: 0 n (%)
- Nausea [5, 6]: 2 (25) n (%)
- Oropharyngeal pain [5, 6]: 1 (13) n (%)
- Rash [5, 6]: 1 (13) n (%)
- Serious AE: Atrial fibrillation [5, 6]: 0 n (%)
- Syphilis [5, 6]: 0 n (%)
- Upper respiratory tract infection [5, 6]: 0 n (%)
- Vomiting [5, 6]: 2 (25) n (%)
- Any AE [5, 7]: 6 (75) n (%)
- Arthralgia [5, 7]: 0 n (%)
- Constipation [5, 7]: 1 (13) n (%)
- Haemorrhoids [5, 7]: 1 (13) n (%)
- Headache [5, 7]: 0 n (%)
- Injection site erythema [5, 7]: 1 (13) n (%)
- Injection site induration [5, 7]: 1 (13) n (%)
- Injection site nodule [5, 7]: 1 (13) n (%)
- Injection site pain [5, 7]: 4 (50) n (%)
- Nasopharyngitis [5, 7]: 0 n (%)
- Nausea [5, 7]: 1 (13) n (%)
- Oropharyngeal pain [5, 7]: 1 (13) n (%)
- Rash [5, 7]: 1 (13) n (%)
- Serious AE: Atrial fibrillation [5, 7]: 0 n (%)
- Syphilis [5, 7]: 1 (13) n (%)
- Upper respiratory tract infection [5, 7]: 0 n (%)
- Vomiting [5, 7]: 1 (13) n (%)
- safety and tolerability ([5]; single SC 20 to 450 mg, participants with untreated HIV-1 infection): generally safe and well tolerated
